# “Also recorded” adds a separate entry of the source. Where two headings read alike, the source gives them in different places.
# Experiments:
# [1] = tested on: NMDA-evoked seizures in mice; type: in vivo
# [2] = Basal or systemic blood pressure (chronic use, malignant hypotension); type: in vivo
# [3] = tested on: locomotor activity in mice; experiment: Locomotor activity in mice (open field, Digiscan activity monitor); type: in vivo, mouse (NIH Swiss)
# [4] = tested on: spontaneous seizures in gerbils; experiment: Spontaneous seizures in gerbils on immersion in water maze; type: in vivo, gerbil
# Method: During the studies of behavioural responses of gerbils to adenosine receptor stimulation, animals were exposed to the water maze model of spatial learning and memory. The control group (n=15) was injected with the vehicle given i.p. for 6 weeks prior to water maze tests. Twenty-four hours after the last injection, animals were exposed to the swim task. Immersion of animals in the swim tank whose water was kept at 32° C. produced an immediate, long-lasting (up to 2 min) seizure complex that was presented as myoclonic convulsions, followed by a period of rigidity and hind-limb extension.
# [5] = tested on: phospholipase C; conditions: acute administration; 'it is known'; cited from earlier work
# [6] = tested on: injection-induced anxiety in mice; experiment: Anxiolytic effect in C57BL/J mice (responses to handling); type: in vivo, mouse (C57BL/J); conditions: chronic, 100 μg/kg
# [7] = target: T1, adenosine uptake sites in rat brain membranes (Rattus norvegicus, UniProt O54698); experiment: Competition for [3H]NBTI binding at adenosine uptake sites in rat striatal membranes; conditions: read-out: Ki (NBTI); 0.3 nM [3H]NBTI, 30 min at 23° C., pH 7.4
# T1 sequence (O54698 1-457): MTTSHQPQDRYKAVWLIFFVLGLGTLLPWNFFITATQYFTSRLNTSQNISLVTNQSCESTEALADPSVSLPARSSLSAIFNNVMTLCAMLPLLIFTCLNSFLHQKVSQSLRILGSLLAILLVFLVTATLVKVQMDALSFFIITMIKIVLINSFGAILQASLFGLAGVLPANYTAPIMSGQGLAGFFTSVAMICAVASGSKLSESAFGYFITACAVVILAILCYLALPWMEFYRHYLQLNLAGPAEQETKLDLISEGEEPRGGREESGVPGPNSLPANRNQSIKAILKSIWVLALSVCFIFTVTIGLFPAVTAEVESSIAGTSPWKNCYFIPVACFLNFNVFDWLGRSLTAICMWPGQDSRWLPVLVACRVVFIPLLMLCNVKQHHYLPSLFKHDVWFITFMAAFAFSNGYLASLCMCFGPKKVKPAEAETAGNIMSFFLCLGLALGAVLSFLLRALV
# [8] = tested on: pentamethylenetetrazole-induced convulsions in mice; type: in vivo
# [9] = tested on: spatial memory in gerbils; experiment: Learning and memory in gerbils (Morris water maze) and open field; type: in vivo, gerbil; conditions: chronic
# [10] = tested on: electroconvulsive shock in mice; type: in vivo
# [11] = tested on: cardiovascular parameters in rats; type: in vivo, rat
# Method: Rats (each weighing 300-340 g) were lightly anesthetized using 1.5-2% halothane. They were monitored for heart rate with a tail sensor and blood pressure using the tail cuff method. Peripheral blood flow (scalp) was monitored using a Perimed laser Doppler blood flow apparatus, with a narrow diameter probe placed in contact with the shaved skin above the center of the cranium. A small amount of clear gel was applied to maintain uniform transmission of light. Body temperature was measured using a rectal probe. Respiratory rate was also recorded. Measurements were made at regular intervals: every 2 min for the first ten min period, and every five min thereafter, until 30 min, at which time a 30 min interval was used, until 90 min. […] Drugs were dissolved in a vehicle consisting of an 80:20 mixture of Alkamuls EL-620 and saline, pH 7.4. […] When administered alone, the agonist was given at the beginning of the monitoring period. When coadministered with an antagonist, the antagonist was given at the beginning of the monitoring period, and the agonist was given after 10 min.
# [12] = tested on: forebrain ischemia in gerbils; experiment: Forebrain ischemia in gerbils (bilateral carotid occlusion); type: in vivo, Mongolian gerbil
# Method: Ischemia was effected by bilateral occlusion of the carotid arteries. Control gerbils were injected with saline (0.15 ml, i.p. for 10 days). During postischemic recovery, the rate of cerebral blood flow return to pre-ischemia level, neurological status, and survival were monitored. After 7 days, all surviving animals were perfused with formaldehyde for further studies of morphology and histochemistry.
# [13] = Rectal temperature of mice under light halothane anesthesia; conditions: 100 μg/kg acute (15 min) or chronic (24 h after last injection)
# [14] = target: T1, adenosine uptake sites in rat brain membranes; set-up: Rat striatal membranes, prepared as above; from tissue; host or cells: rat striatal membranes; conditions: read-out: Kd value used for [3H]NBTI Ki calculation; cited from earlier work
# [15] = target: T2, rat brain A1 receptors (Rattus norvegicus, UniProt P25099); experiment: Displacement of [125I]APNEA binding in rat brain membranes; conditions: read-out: IC50 vs. displacement of specific binding of [125I]APNEA, Ki (A1) column of Table 2, footnote f
# T2 construct: in rat brain membranes; from tissue; host or cells: rat brain membranes
# T2 sequence (P25099 1-326): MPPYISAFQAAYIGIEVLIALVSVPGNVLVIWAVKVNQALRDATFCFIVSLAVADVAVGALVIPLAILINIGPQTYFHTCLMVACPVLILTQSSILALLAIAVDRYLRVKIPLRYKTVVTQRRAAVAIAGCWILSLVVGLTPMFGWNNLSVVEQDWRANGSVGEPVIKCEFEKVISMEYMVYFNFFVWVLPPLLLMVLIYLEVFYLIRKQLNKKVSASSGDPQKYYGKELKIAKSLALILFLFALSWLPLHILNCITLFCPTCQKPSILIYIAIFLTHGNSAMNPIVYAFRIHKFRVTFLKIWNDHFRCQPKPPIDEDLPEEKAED
# [16] = acute IB-MECA 10 μg/kg + NMDA 60 mg/kg, NS
# [17] = acute IB-MECA 50 μg/kg + NMDA 60 mg/kg, NS
# [18] = acute IB-MECA 100 μg/kg + NMDA 60 mg/kg
# [19] = acute IB-MECA 100 μg/kg + NMDA 60 mg/kg, P<0.05
# [20] = chronic IB-MECA 100 μg/kg + NMDA 60 mg/kg, P<0.05
# [21] = acute IB-MECA 100 μg/kg + PMT 75 mg/kg
# [22] = acute IB-MECA 100 μg/kg + PMT 75 mg/kg, P<0.05
# [23] = chronic IB-MECA 100 μg/kg + PMT 75 mg/kg
# [24] = chronic IB-MECA 100 μg/kg + PMT 75 mg/kg, P<0.05
# [25] = acute, 15 min prior to 10 min ischemia
# [26] = chronic 10 days, 10 min ischemia
compound,measurement,setting,value
"CNC(=O)[C@H]1O[C@@H](n2cnc3c(NCc4cccc(I)c4)ncnc32)[C@H](O)[C@@H]1O [Compound 42, N^6-(3-iodobenzyl)adenosine-5'-N-methyluronamide]",incidence of seizures or degree of neurological impairment (in words),[1]; acute IB-MECA 10 μg/kg + NMDA 60 mg/kg,"no effect on either the incidence of seizures, or the degree of neurological impairment"
same,% Convulsing,[1]; [16],50%
same,% Mortality at 24 h,[1]; [16],50%
same,Impairment (scale 1-6),[1]; [16],2.7 + 0.6
same,Ave. Latency to Seizures,"[1]; acute IB-MECA 10 μg/kg + NMDA 60 mg/kg, P<0.05",581 + 107 sec
same,% Mortality at 24 h,[1]; [17],27%
same,Impairment (scale 1-6),[1]; [17],2.0 + 0.5
same,% Convulsing,"[1]; acute IB-MECA 50 μg/kg + NMDA 60 mg/kg, P<0.05",10%
same,Ave. Latency to Seizures,"[1]; acute IB-MECA 50 μg/kg + NMDA 60 mg/kg, only one animal",12 s
same,% Convulsing,[1]; [18],0%
same,clinically manifested seizures (in words),[1]; [18],completely absent
same,duration of lethargic behaviour,[1]; [18],45 to 60 min
same,% Mortality at 24 h,[1]; [19],10%
same,Impairment (scale 1-6),[1]; [19],1.4 + 0.4
same,animals with tonic seizures,[1]; chronic IB-MECA 100 μg/kg + NMDA 60 mg/kg,20%
same,% Convulsing,[1]; [20],30%
same,Ave. Latency to Seizures,[1]; [20],689 + 108 sec
same,Impairment (scale 1-6),[1]; [20],1.8 + 0.4
same,basal or systemic blood pressure after administration,[2]; from about 70 mm Hg,about 90 mm Hg
same,increase in basal or systemic blood pressure,[2]; in vivo,10-30%
same,reduction in locomotor activity at chosen dose,"[3]; APEC 16 μg/kg, 3-IB-MECA 100 μg/kg i.p.",ca. 50%
same,minimal effective dose,"[3]; Mus musculus, ip, read-out: threshold dose for locomotor depression",0.01 mg/kg
same,dose of maximal locomotor depression,[3]; i.p.,about 0.1 mg/kg
same,scratching behavior (in words),[3]; i.p.,rapid scratching behavior
same,locomotor measures (in words),"[3]; i.p., listed as 3-IB-MECA","Vertical activity, stereotype counts, and rotational movement were depressed in a dose-dependent manner; also recorded: average distance per move and average speed were not changed significantly"
same,plateau of locomotor depression below control level,"[3]; total distance traveled, higher doses",ca. 60%
same,seizing activity (in words),[4]; acute,worsen the seizing activity
same,seizing activity during swim task (in words),"[4]; chronic, 100 μg/kg i.p. daily for 6 wks",entirely eliminated seizing activity
same,"stimulation of phospholipase C and inositol 1,4,5-triphosphate production (in words)",[5],"stimulation of phospholipase C and an enhanced production of inositol 1,4,5-triphosphate"
same,injection-induced anxiety or stress responses (in words),[6],almost no injection-induced anxiety or stress behavioral responses
same,Ki,[7],28200 nM
same,onset of seizures and overall mortality after PMT (in words),[8]; acute IB-MECA,significantly reduced
same,Impairment,[8]; [21],4.1 + 0.5
same,Mortality 0.4-5 h,[8]; [21],0%
same,Mortality <15 min,[8]; [21],40%
same,Mortality >5 h,[8]; [21],10%
same,Mortality Overall,[8]; [22],50%
same,Onset of convulsive behavior,[8]; [22],112 s
same,Mortality 0.4-5 h,[8]; [23],10%
same,Mortality <15 min,[8]; [23],40%
same,Mortality >5 h,[8]; [23],0%
same,Onset of convulsive behavior,[8]; [23],120 s
same,Impairment,[8]; [24],3.3 + 0.5
same,Mortality Overall,[8]; [24],50%
same,onset of seizures or neurological impairment after PMT (in words),[8]; chronic IB-MECA + PMT 75 mg/kg,no significant effect on either the onset of seizures or neurological impairment
same,locomotor behavior in open field (in words),[9],did not show any significant differences in locomotor behavior
same,average time to target,"[9]; 100 μg/kg daily for 2 months, p<0.04 vs controls 40 sec",30 s
same,electroshock threshold voltage (in words),[10]; acute IB-MECA,insignificant increase of threshold voltage
same,% Mortality at 24 h,[10]; acute IB-MECA 100 μg/kg + E.S.,70%
same,Threshold voltage,[10]; acute IB-MECA 100 μg/kg + E.S.,106 + 10
same,electroshock threshold voltage / postictal mortality (in words),[10]; chronic IB-MECA,no significant changes in threshold voltage; also recorded: postictal mortality was significantly reduced
same,Threshold voltage,[10]; chronic IB-MECA 100 μg/kg + E.S.,118 + 13
same,% Mortality at 24 h,"[10]; chronic IB-MECA 100 μg/kg + E.S., p<0.05",30%
same,duration of hypotensive effect,[11]; 0.1 mg/kg,90 min
same,blood flow and respiratory rates (in words),[11]; 0.1 mg/kg i.p.,not significant
same,blood pressure (in words),[11]; 0.1 mg/kg i.p.,lowering of the blood pressure
same,heart rate (in words),[11]; 0.1 mg/kg i.p.,little effect on heart rate
same,drop in body temperature,"[11]; 0.1 mg/kg i.p., after about 30 min post-injection",approximately 0.5 °C
same,onset of hypotensive effect,"[11]; 0.1 mg/kg, post-injection",≤ 2 min
same,postischemic effect (in words),"[12]; acute (15 min) or chronic (10 days), 100 μg/kg, listed as IB-MECA","impairment of postischemic cortical blood flow rate, increased mortality rate, and extensive neuronal destruction in the hippocampus; also recorded: improved post-ischemic blood reflow, increased survival"
same,surviving hippocampal neurons,"[12]; acute (15 min), 10 min ischemia, 100 μg/kg",about 30%
same,survival for 7 days,"[12]; acute, 100 μg/kg i.p. 15 min prior to 10 min ischemia",Ten percent
same,animals with irreversible coma,"[12]; acute, 10 min ischemia",40%
same,animals with seizures,"[12]; acute, 10 min ischemia",60%
same,mortality within 12 hr post-ischemia,[12]; [25],90%
same,time to full recovery of post-ischemic blood flow,[12]; [25],over 3.5 hr
same,end-point mortality,"[12]; acute, repeated experiment, FIG. 6, p<0.01",90%
same,neurological side effects without ischemia (in words),[12]; acutely and chronically treated,No neurological side effects were observed
same,animals with mild hyperactivity,[12]; [26],40%
same,survival for 7 days (in words),[12]; [26],All those gerbils
same,time to full recovery of post-ischemic blood flow,[12]; [26],about 90 min
same,survival for 7 days,"[12]; chronic 10 days, 20 min ischemia",90%
same,surviving hippocampal neurons,"[12]; chronic (10 days), 10 min ischemia, 100 μg/kg",> 80%
same,survival,"[12]; chronic, repeated experiment, FIG. 6, p<0.01",90%
same,rectal temperature (in words),[13],no significant temperature differences
O=[N+]([O-])c1ccc(CSc2ncnc3c2ncn3[C@@H]2O[C@H](CO)[C@@H](O)[C@H]2O)cc1 [[^3 H]NBTI],Kd,[14],0.15 nM
"Nc1ccc(CCNc2ncnc3c2ncn3[C@@H]2O[C@H](CO)[C@@H](O)[C@H]2O)cc1I [[^125 I]APNEA, [^125 I]N^6-2-(4-aminophenyl)ethyladenosine]",IC50,[15],2.1 nM

# From patent US5773423A (priority 1994, dated 1998)
